From US10947260B2, “Phosphinolactone derivatives and pharmaceutical uses thereof” (INSTITUT NATIONAL DE LA SANTE ET DE LA RECHERCHE MEDICALE …, priority 2016, dated 2021)

Assays:
APPSwe mice = experiment: Object recognition test, APPSwe mice; assay type: in vivo; conditions: 2-month treatment
Experimental: FIG. 9: Spatial learning in pool (a-c) and object recognition (d-f) for APPSwe mice after 2-month treatment with compound 3b. Pool: acquisition profiles of WT mice treated with V and 3b (2 mg/kg) (a) or APPSwe mice (b). (c) Presence in training quadrant (T) and mean in the other quadrants (o) during trial test performed 48 h after the last training session. Friedman non-parametric ANOVA with repeated measures: Fr=21.7, p<0.001 for the group WT/V, Fr=21.8, p<0.001 for the group WT/3b at (a); Fr=13.0, p<0.05 for group APPSwe/V, Fr=12.2, p<0.05 for group APPSwe/3b at (b). […]
The apparatus consisted of four square-shaped arenas (50 cm×50 cm×50 cm in height) made of white plexiglass and placed on a platform equipped with infrared light-emitting diodes (IR). The locomotor activity of the animal and position of the nose were able to be captured by an IR-sensitive camera and analysed using Videotrack and Nosetrack software. […] Each mouse was placed in the open field and exploratory activity and nose position were recorded for 10 min. Activity was analysed in terms of number of contacts with the objects and contact time. […] Each mouse was again placed in the open field and exploratory activity recorded for 10 min. Activity was analysed in similar manner. […]

[1] = system: mice treated with Aβ25-35; experiment: Passive avoidance test, Aβ25-35 model; assay type: in vivo; conditions: 0.1 and 0.3 mg/kg IP; Days 8 and 9
Experimental: The amyloid-β[25-35] peptide (Aβ25-35) and control peptide (Sc.Aβ) were obtained from Genepep (Saint-Jean-de-Vedas, France). They were solubilized in injectable distilled water at a concentration of 3 mg/ml and stored at −20° C. Before injection, the peptides were incubated at 37° C. for 4 days, which enabled the Aβ25-35 peptide but not the Sc.Aβ, to form oligomers. They were administered via intracerebroventricular route (ICV). The animals were anesthetized by inhaling 2.5% isoflurane (TEM) and were given 3 μl of peptide solution via direct ICV route (Haley and McCormick's method). For injection a 10 μl Hamilton micro-syringe was used at a flow rate of 1 μl/min.
The apparatus contained two compartments (15×20×15 cm in height) with one light part having walls in white PVC and the other dark with walls in black PVC and a grid floor. A vertical sliding door separated each compartment. A 60 W lamp was positioned 40 cm above the white compartment during the experiment. Electrical shocks (0.3 mA for 3 s) were delivered to the grid floor by means of a scrambled shock generator (Lafayette Instruments, Lafayette, United States). The vertical sliding door was first closed during the training session. […] Step-through latency (STL) i.e. the time taken to enter the dark compartment and the number of cries, were recorded. […] Step-through latency was recorded up to 300 s. […]

[2] = system: mice treated with Aβ25-35
Experimental: The hippocampi were homogenized in 50 mM Tris-150 mM NaCl solution, pH 7.5, and sonicated for 20 s. After centrifugation at 16 100 g for 15 min at 4° C., the supernatants were used for ELISA assays in accordance with the manufacturer's instructions (ThermoScientific, Courtaboeuf, France; USCN, Wuhan, China). For each assay, absorbance was read at 450 nm and the concentration of each sample calculated in comparison with a standard curve. The results are expressed in ng or pg per mg of tissue and expressed as % of the control group.
On Day 9, the animals were sacrificed, the brains removed, the hippocampi and cortex dissected and frozen.

[3] = 1.5 mg/kg IP, control ScAβ animals

SMILES	decrease in number of contacts with objects, APPSwe animals (APPSwe mice; 1 mg/kg/d)	deficit of novel object preference (contacts, contact time), APPSwe animals (APPSwe mice; session 3)	long-term memory response (passive avoidance step-through latency) [1]	Bax in control animals ScAβ [2, 3]	Bax/Bcl2 ratio in control animals ScAβ [2, 3]	Bcl2 levels ([2]; 0.3-1.5 mg/kg IP)
CC1(C)COP(=O)(c2ccc(Cl)cc2)C(C)(C)N1 (racemic) [Compound 3c, (±)-2-(4-Chlorophenyl)-2-oxo-3,3,5,5-tetramethyl-[1,4,2]-oxazaphosphinane]	blocked	significantly blocked or attenuated	appeared effective	–	–	–
CC1(C)COP(=O)(c2cccc(Cl)c2)C(C)(C)N1 (racemic) [Compound 3b, (±)-2-(3-Chlorophenyl)-2-oxo-3,3,5,5-tetramethyl-[1,4,2]-oxazaphosphinane]	–	–	–	tends to increase Bax	tends to increase	no effect
